Tests used:
MHC = assay: Western blot of MHC expression in differentiating C2C12 myoblasts; type: cell-based, mouse
Description: (§1) Various concentrations of inventive extract (1, 10, 100 ng/ml) were treated to C2C12 cells (mouse myoblast cell line; Cat^#CRL-1771, ATCC) in differentiation medium (2% horse serum-containing DMEM, Cat^#11965-084, Gibco) for 3 days to induce their differentiation.
(§2) For Western blot analysis, about 3×10^4 mouse myoblast cell cells were incubated in 60 mm plates for 24 hours, and each sample was added to the differentiation medium for 3 days to differentiate. The protein extract was obtained from the differentiated cells using by lysis buffer [25 mM Tris-HCl (pH 7.5), 100 mM NaCl, 1% NP-40, 1% sodium deoxycholate, 0.1% sodium dodecyl sulfate (SDS), and protease inhibitor cocktail, Calbiochem, Darmstadt, Germany). The protein extract (25 μg) was performed to SDS-polyacrylamide gel electorphoresis (PAGE) and transferred to polyvinylidene fluoride (PVDF) membranes.
Primary mouse anti-MHC (sc-376157, Santa Cruz) or anti-myoD (sc-32758, Santa Cruz) was conjugated to the blots at 4° C., for 12 hrs and then conjugated with anti-mouse secondary antibody conjugated to Horseradish peroxidase (goat anti-mouse IgG-HRP, sc-2005, SantaCruz) to analyze the amount of MHC protein by chemiluminescence method. Pan-cadherin (Cat #3678, Sigma) was used as a loading control in the experiment.
(§3) Various inventive compounds (10 nM) were treated to C2C12 cells (mouse myoblast cell line; Cat^#CRL-1771, ATCC) in differentiation medium (2% horse serum-containing DMEM, Cat^#11965-084, Gibco) for 3 days to induce their differentiation.
as §2, with “electrophoresis” for “electorphoresis”
(§4) The change of MHC expression caused by inventive compound in myotube cell was determined by immunostaining method using by mouse anti-MHC and anti-mouse IgG2b Alexa-fluor 568 (See FIG. 7) (Chem. Biol. Interact. 2016, 248:60).
(§5) Various concentrations of inventive compound 1 (1, 10 and 100 nM) were treated to C2C12 cells (mouse myoblast cell line; Cat^#CRL-1771, ATCC) in differentiation medium (2% horse serum-containing DMEM, Cat^#11965-084, Gibco) for 3 days to induce their differentiation.

myoD = assay: Western blot of myoD expression in differentiating C2C12 myoblasts; type: cell-based, mouse; details: 3 days differentiation
Description: Various concentrations of inventive extract (1, 10, 100 ng/ml) were treated to C2C12 cells (mouse myoblast cell line; Ca^#CRL-1771, American Type Culture Collection (ATCC)) and cell lysates obtained from the differentiated cells, were subjected to Western Blot analysis to evaluate the expressed level of MHC and myoD proteins (The result was shown in FIG. 1A). the change of MHC expression caused by inventive extract in myotube cell was determined by immunostaining method using by mouse anti-MHC and anti-mouse IgG2b Alexa-fluor 568 (See FIG. 1B) (Chem. Biol. Interact. 2016, 248:60).
as §1
as §2, with “The protein extract (25 μg) was performed to SDS-polyacrylamide gel electorphoresis (PAGE) and transferred to polyvinylidene fluoride (PVDF) membranes.” left out
In order to investigate the myogenic effect of the inventive compound 1 obtained in Example, various concentrations of inventive compound 1 (1, 10 and 100 nM) were treated to C2C12 cells (mouse myoblast cell line; Cat^#CRL-1771, American Type Culture Collection (ATCC)) and cell lysates obtained from the differentiated cells, were subjected to Western Blot analysis to evaluate the expressed level of MHC and myoD proteins (The result was shown in FIG. 6). The change of MHC expression caused by inventive compound in myotube cell was determined by immunostaining method using by mouse anti-MHC and anti-mouse IgG2b Alexa-fluor 568 (See FIG. 7) (Chem. Biol. Interact. 2016, 248:60). […]

C2C12 cells = assay: Immunofluorescence staining (anti-MHC/DAPI) of multinucleated myotubes, myoblast differentiation; type: cell-based, mouse
Description: as §1
(§6) After removing respective differentiation medium, the differentiated myoblast cells in the differentiation medium were washed with phosphate buffer solution twice and fixed with 4% paraformaldehyde (0141, BBC Biochemical) for 20 mins. After washing the cells with phosphate buffer solution twice again, the cells were treated with 0.1% tritonX-100 (2315025, Sigma) for 20 mins. After washing the cells with phosphate buffer solution twice again, the cells were blocked with 5% horse serum solution (16050122, Gibco) and mouse anti-MHC (MAB4470, R&D systems) was added thereto to react for 12 hours at 4° C.
(§7) After finishing the reaction, the cells were washed with phosphate buffer solution more than 3 times and then the level of MHC expression was analyzed using by Alexa Flouor 568-conjuagted secondary anti-mouse (A-21144, MicoProbes) and DAPI (D9542, Sigma). The test result of immunofluorescence on MHC-positive myotubes was visualized with red color and the DAPI-labelled nucleus was visualized with blue color.
as §3, §4, §5

p38 MAPK = assay: Western blot of phosphorylated p38 MAPK in differentiated myotubes; type: cell-based, mouse; details: 3 days after differentiation
Description: Various concentrations of inventive extract (1, 10, 100 ng/ml) were treated to myoblast cells and the expressed level of p38 MAPK protein in the lysates of differentiated myotubes obtained at 3 days after the differentiation, was determined according to Western blot analysis.
Primary rabbit-anti phosphorylation p38 MAPK (Cat #9212, Cell Signaling Technology) was reacted with anti-rabbit secondary antibody (goat anti-rabbit IgG-HRP, sc-2004, SantaCruz) to determine the express level of phosphorylated p38 MAPK and primary rabbit-anti-p38 MAPK (Cat #9212, Cell Signaling Technology) was used to determine the expressed amount of total p38 MAPK (loading control)
Various concentrations of inventive compound 1 (1, 10, 100 nM) were treated to myoblast cells and the expressed level of p38 MAPK protein in the lysates of differentiated myotubes obtained at 3 days after the differentiation, was determined according to Western blot analysis.

[1] = system: C2C12 myotube cells treated with dexamethasone; assay: Immunofluorescence staining of multinucleated MHC-positive myotubes after dexamethasone-induced muscle loss; type: cell-based, mouse; details: dexamethasone (12 hours) + compound 10 nM; control group = 1
Description: as §6, §7
About 3×10^4 mouse myoblast cell cells (C2C12; CRL-1772 ATCC) were incubated in 60 mm plates for 24 hours, and various inventive compounds (10 nM) were added to the differentiation medium (0273, Gibco) for 3 days to differentiate.

[2] = Body weight in dexamethasone animal model of muscle loss; type: in vivo, mouse; details: Dexa + oxymetholone 10 mg/kg oral daily
Description: (§8) Dexamethasone, a synthetic glucocorticoid, was injected subcutaneously into C57/BL6 mouse mice to establish an animal model of muscle loss and following experiment was performed.
(§9) To establish an in vivo model of muscle loss, 6 weeks-old male C57/BL6 mice (Raon Bio, 6 weeks old, weight range: 32-36 g) were acclimated for one-week, and then weighed animals determined to be healthy during the acclimatization period. The mice close to the average weight were selected using a simple random sampling method and were classified into five groups, namely, (a) a control group, (b) a muscle loss control group (treated with dexamethasone 1 mg/kg), (c) test sample group treated with inventive extract 250 mg/kg and dexamethasone, (d) test sample group treated with inventive extract 500 mg/kg and dexamethasone, and (e) positive control treated with oxymetholone (Celltrion Co. Ltd, ATC #A14AA05, 10 mg/kg) and dexamethasone.
(§10) The inventive Extract and oxymetholone were administered once to the mice daily for 4 weeks and dexamethasone was injected subcutaneously for 10 days from 10 days before the end of co-treatment of inventive extract and oxymetholone.
(§11) Both of inventive extract and oxymetholone were forcibly administered orally using zonde for oral administration after holding and fixing the skin of the animal's poll area, and dexamethasone was injected slowly subcutaneously after inserting a syringe into the dorsal skin fold of the animal held on the thumb and index finger, slightly aspirating whether it was injected normally, and confirming that no blood came out.
The body weight of every animal was measured once a week for 4 weeks from the day of inventive extract administration.

C57/BL6 mice [3] = assay: Grip strength test in dexamethasone animal model of muscle loss; type: in vivo, mouse; details: Dexa + oxymetholone 10 mg/kg oral daily
Description: as §8, §9, §10, §11
The grip strength of mice was determined as follows; after grabbing the animal's tail and placing it on the grid, the front foot and body were pulled at the same speed until the front foot and body were held at the grid with the front paw, and the average value was calculated after three experimental repetitions. The determination was performed on the 14th and 28th days after the administration of test sample.

C57/BL6 mice [4] = assay: Treadmill test in dexamethasone animal model of muscle loss; type: in vivo, mouse; details: Dexa + oxymetholone 10 mg/kg oral daily
Description: as §8, §9, §10, §11
The determination was performed on the 14th and 28th days after the administration of test sample.

C57/BL6 mice [5] = assay: Weight of muscle mass, epididymal fat and liver in dexamethasone animal model of muscle loss; type: in vivo, mouse; details: Dexa + oxymetholone 10 mg/kg oral daily, autopsy at 4 weeks
Description: as §8, §9, §10, §11
The mice were anesthetized with anesthetic to prevent the movement of experimental animals and sacrificed to minimize pain to dissect them. All instruments used during the experiment were sterilized and disinfected and their liver and epididymis fat were harvested.
The gastrocnemius muscle and soleus muscle of the mice were separated, washed in saline, drained, and weighed.
After autopsy at 4 weeks after administration, the weight of liver and Epididymis fat was weighed to calculate weight-to-weight to compare the relative differences between the organ's weight in the groups.

[6] = compound 10 nM, 3 days differentiation, control = 1 (Experimental Example 3)
[7] = compound 10 nM, 3 days differentiation (Experimental Example 3)

COc1cc(/C=C/C(=O)OC[C@H](Cc2ccc(O)c(OC)c2)[C@H](COC(=O)/C=C/c2ccc(O)c(OC)c2)Cc2ccc(O)c(OC)c2)ccc1O [Compound 1, (−)-(2R,3R)-1,4-O-diferuloylsecoisolariciresinol]
MHC/pan-cadherin expression (fold) (MHC; [6]): 1.5 fold
MHC/pan-cadherin expression (fold) (MHC; compound 1 at 1 nM, 3 days differentiation (Experimental Example 4)): 1.2 fold
MHC/pan-cadherin expression (fold) (MHC; compound 1 at 10 nM, 3 days differentiation (Experimental Example 4)): 6.0 fold
MHC/pan-cadherin expression (fold) (MHC; compound 1 at 100 nM, 3 days differentiation (Experimental Example 4)): 4.6 fold
myoD/pan-cadherin expression (fold) (myoD; compound 1 at 1 nM): 1.2 fold
myoD/pan-cadherin expression (fold) (myoD; compound 1 at 10 nM): 1.3 fold
myoD/pan-cadherin expression (fold) (myoD; compound 1 at 100 nM): 1.7 fold
The number of muscle fibers that are multinucleated with five or more nuclei and expressed with MHC (fold) (C2C12 cells; [7]): 2.8 fold
The number of muscle fibers that are multinucleated with five or more nuclei and expressed with MHC (fold) (C2C12 cells; compound 1 at 1 nM (Experimental Example 4)): 1.5 fold
The number of muscle fibers that are multinucleated with five or more nuclei and expressed with MHC (fold) (C2C12 cells; compound 1 at 10 nM (Experimental Example 4)): 9.0 fold
The number of muscle fibers that are multinucleated with five or more nuclei and expressed with MHC (fold) (C2C12 cells; compound 1 at 100 nM (Experimental Example 4)): 8.0 fold
phosphorylated-p38/p38 expressed amount (fold) (p38 MAPK; compound 1 at 1 nM): 10.6 fold
phosphorylated-p38/p38 expressed amount (fold) (p38 MAPK; compound 1 at 10 nM): 14.8 fold
phosphorylated-p38/p38 expressed amount (fold) (p38 MAPK; compound 1 at 100 nM): 15.0 fold
The number of muscle fibers that are multinucleated with five or more nuclei and expressed with MHC (fold) [1]: 0.7 fold

O=C(CCc1ccc(O)c(O)c1)CC(O)CCc1ccc(O)c(O)c1 (stereo not shown) [Compound 4, Hirsutanonol]
MHC/pan-cadherin expression (fold) (MHC; [6]): 1.9 fold
The number of muscle fibers that are multinucleated with five or more nuclei and expressed with MHC (fold) (C2C12 cells; [7]): 3.1 fold
The number of muscle fibers that are multinucleated with five or more nuclei and expressed with MHC (fold) [1]: 0.7 fold

C[C@]12C/C(=C/O)C(=O)C[C@@H]1CC[C@@H]1[C@@H]2CC[C@@]2(C)[C@H]1CC[C@]2(C)O [Oxy, oxymetholone]
body weight ([2]; 0 week): 22.26 ± 0.71 gram
body weight ([2]; 1 week): 22.49 ± 0.72 gram
body weight ([2]; 2 weeks): 23.25 ± 0.90 gram
body weight ([2]; 3 weeks): 23.22 ± 0.93 gram
body weight ([2]; 4 weeks): 23.20 ± 0.78^b gram
grip strength (C57/BL6 mice [3]; 2 weeks): 1.00 ± 0.06 N
grip strength (C57/BL6 mice [3]; 4 weeks): 1.25 ± 0.16^a N
motility (treadmill) (C57/BL6 mice [4]; 2 weeks): 774.75 ± 66.11 meter
motility (treadmill) (C57/BL6 mice [4]; 4 weeks): 773.93 ± 39.64 meter
absolute weight, epididymal fat (C57/BL6 mice [5]): 0.43 ± 0.09^# gram
absolute weight, liver (C57/BL6 mice [5]): 1.16 ± 0.07 gram
absolute weight, calf muscle (C57/BL6 mice [5]; gastrocnemius): 0.251 ± 0.016 gram
absolute weight, fluke muscle (C57/BL6 mice [5]; soleus): 0.023 ± 0.002^d gram

Reference: patent US20230270805A1, “A COMPOSITION COMPRISING AN EXTRACT OF ALDER TREE OR THE ISOLATED COMPOUNDS THEREFROM FOR TREATING AND PREVENTING SKELETON MUSCLE-RELATED DISORDER AND THE USE THEREOF” (Sookmyung Women's University Indusutry-Academic Cooperation …, priority 2020, published 2023)
